Consider ten molecules from PMC10671849, “Synthesis and Evaluation of Marine-Inspired Compounds Result in Hybrids with Antitrypanosomal and Antileishmanial Activities” (Marine Drugs, 2023).

Values after ≈ are worked out from the molar mass of the structure shown. Where two headings read alike, the source gives them in different places.

By IC50 is commonly meant the midpoint of a concentration-inhibition curve. One may read the MIC as the least concentration at which growth counts as inhibited. Low readings indicate a more susceptible organism, high ones a less susceptible organism.

Test [1] concerns T. brucei Lister 427 bloodstream forms. Nature of the test: Anti-T. brucei activity, resazurin-based assay on bloodstream forms. It is filed as cell-based, Trypanosoma brucei. As to conditions: for IC50: Trypanosoma brucei, read-out: Anti-Parasitic Activity IC50 (µM) 95% CI, T. brucei. On the procedure:
T. brucei Lister 427 bloodstream forms were grown in a humidified incubator at 37 °C and 5% CO2 in complete HMI-9 medium supplemented with 10% heat-inactivated fetal bovine serum (FBS) and 100 UI/mL penicillin/streptomycin. Parasite maintenance was performed in T25 ventilated flasks by subpassage at a concentration of 1 × 10^4/mL every 2 days in T25 ventilated flasks. Luciferase-expressing L. infantum (MHOM/MA/67/ITMAP-263) axenic amastigotes expressing episomal luciferase were maintained in MAA20 [31] at 37 °C in a 5% CO2 environment with subculture every 7 days at 1 × 10^6/mL in 5-mL T25 ventilated flasks.
The compounds’ efficacy against bloodstream-stage trypomastigotes was evaluated using a resazurin-based assay. Parasites were added to 100 µL of serial dilutions of compounds in supplemented complete medium at a cell density of 5 × 10^3/mL. As a quality control, a dose–response curve for the antitrypanosomal pentamidine was included in all the assays. The final volume of the assay was 200 µL/well. Each condition was carried out in duplicate. Following 72 h of incubation at the specific conditions for parasites, 20 […] of a 0.5 mM resazurin solution was added, and the plates were incubated for a further 4 h under the same conditions. Fluorescence was measured at 544 nm and 590 nm excitation and emission wavelength, respectively, using a Synergy 2 Multi-Mode Reader (Biotek, Winooski, VT, USA). The results are shown as % of parasite growth inhibition compared to control (untreated parasites) and represent the average of at least three independent experiments. The effect was evaluated by the determination of the IC50 value (concentration required to inhibit growth in 50%) and calculated by non-linear regression curves using GraphPad Prism software, version 8.1.1 for Windows (GraphPad Software, San Diego, CA, USA).
A general note: Resazurin is reduced to fluorescent resorufin, in cell work by metabolically active cells.

For test [2], the system named is Candida albicans ATCC 10231. The experiment in a line: Antifungal broth microdilution (CLSI M27-A3), MIC/MLC. Format: cell-based. The following applies: for MIC: Candida albicans, ATCC10231, broth microdilution, 16 to 512 µg/mL, 48 h at 36 °C. On the procedure: All tested compounds (9a–9d, 10a–10c, 13, 14, and eugenol (1)) were prepared in DMSO (Sigma-Aldrich, St. Louis, MO, USA) at a concentration of 10 mg/mL. The reference drugs used (voriconazole (Sigma-Aldrich, St. Louis, MO, USA) for fungi and quality control; gentamicin (Sigma-Aldrich, St. Louis, MO, USA) for bacterial and quality control) were prepared at 6.4 mg/mL. The stock solutions of the compounds were stored at –20 °C until immediately before the assays and then were diluted in fresh culture medium, RPMI-1640 medium (Biochrom AG, Berlin, Germany) buffered with 3-(N-morpholino)propanesulfonic acid (MOPS—Sigma-Aldrich, St. Louis, MO, USA) for fungi and cation-adjusted Mueller–Hinton broth (MHBII—Becton Dickinson, France) for bacteria, henceforth referred to as RPMI and MHB, respectively.
Fungal strains, including reference strains and clinical isolates, were used for the study of the antifungal activity: a yeast reference strain from American Type Culture Collection (ATCC), Candida albicans ATCC 10231; filamentous fungi reference strain Aspergillus fumigatus ATCC 240305; and a clinical isolate of dermatophytes Trichophyton rubrum FF5. Candida krusei ATCC 6258 was used as a quality control. All fungal strains were stored in Sabouraud dextrose broth (SDB—Bio-Mèrieux, Marcy L’Etoile, France) with glycerol (20%) at −80 °C and were subcultured in Sabouraud dextrose agar (SDA—Bio-Mèrieux, Marcy L’Etoile, France) for 24–72 h (yeasts and A. fumigatus) or 5–7 days (T. rubrum) before each assay to obtain optimal growth and purity conditions. Two bacteria strains were used, one Gram positive and one Gram negative: Staphylococcus aureus ATCC 25923 and Escherichia coli ATCC 25922, respectively. The bacterial strains were stored in trypticase soy broth (TSB—Biolife, Milan, Italy) with glycerol (10%) at −80 °C and subcultured in Mueller–Hinton agar (MHA—Bio-Mèrieux, Marcy L’Etoile, France) for 24 h before each assay.
For the purpose of quantitatively measuring the antifungal activity in vitro, a broth microdilution method was used to determine the MICs using the CLSI reference protocols M27-A3 [27] for yeasts and M38-A2 [28] for filamentous fungi. In short, two-fold serial dilutions of each stock solution were prepared using RPMI medium (pH 7) to obtain a range of test concentrations from 16 to 512 μg/mL. The yeasts or spore suspensions were prepared from 24 to 72-h cultures (yeasts and Aspergillus) or from 5–7 days of cultures (dermatophyte) in saline solution (with a drop of Tween 20 for the filamentous fungi). The transmittance of the cell density of yeasts was adjusted to 0.5 McFarland standard, and for filamentous fungi, the spores were counted using a Neubauer camera. Dilutions were performed using RPMI to obtain cell final concentrations in the plate of 0.5–2.5 × 10^3 colony forming units (CFU)/mL for yeasts, 0.4–5 × 10^4 CFU/mL for Aspergillus, and 1–3 × 10^3 CFU/mL for dermatophytes. Plates with the prepared serial dilutions of the tested compounds were inoculated with the same volume of the fungal suspension, and sterility (wells with only culture medium), growth (wells with cell suspensions in culture medium), and DMSO controls (wells with cell suspensions in culture medium containing 1% DMSO) were included in each assay. […] For the tested compounds, MIC values were considered the minimum concentration that inhibited the yeast growth by 100% compared to the growth control. The reference drug, voriconazole, was tested against C. krusei ATCC 6258 as a quality control, and the results were within the limits of CLSI reference documents.
After MIC readings, 10 μL of suspension were collected from wells corresponding to the MIC and the highest concentration following the MIC and were deposited in SDA plates. The plates were incubated following the conditions previously mentioned for the MIC evaluation, and the MLC was determined as the lowest concentration at which no fungal growth is observed.

Setting [3] is: bloodstream forms, 72 h incubation, resazurin.

Take `C=CCc1ccc(OCc2cn(CC(=O)Nc3ccccc3C(=O)O)nn2)c(OC)c1` [compound 13, 2-(2-(4-((4-allyl-2-methoxyphenoxy)methyl)-1H-1,2,3-triazol-1-yl)acetamido) benzoic acid]: in test [1] (setting [3]), the concentration for half-maximal inhibition (IC50) is greater than 40 µM. Moreover, in test [2], the minimum inhibitory concentration (MIC) is greater than 512 µg/mL.
The matching figures for `C=CCc1cc(Cn2cc(C(=O)Nc3ccc(Cl)cc3C(N)=O)nn2)c(O)c(OC)c1` [9d, 1-(5-allyl-2-hydroxy-3-methoxybenzyl)-N-(2-carbamoyl-4-chlorophenyl)-1H-1,2,3-triazole-4-carboxamide]: 15.9 µM and greater than 512 µg/mL.
The matching figures for `C=CCc1cc(Cn2cc(-c3nc4ccc(F)cc4c(=O)[nH]3)nn2)c(O)c(OC)c1` [10c, 2-(1-(5-allyl-2-hydroxy-3-methoxybenzyl)-1H-1,2,3-triazol-4-yl)-6-fluoroquinazolin-4(3H)-one]: 11.2 µM and greater than 512 µg/mL.
As for `C=CCc1cc(Cn2cc(-c3nc4ccccc4c(=O)[nH]3)nn2)c(O)c(OC)c1` [10a, 2-(1-(5-allyl-2-hydroxy-3-methoxybenzyl)-1H-1,2,3-triazol-4-yl)quinazolin-4(3H)-one], in test [1] (setting [3]), the IC50 is greater than 40 µM and the “Anti-Parasitic Activity IC50 (µM) 95% CI, T. brucei” value is “did not show detectable values of IC50”. This molecule had a minimum inhibitory concentration (MIC) in test [2] greater than 512 µg/mL.
The matching figures for `C=CCc1cc(Cn2cc(C(=O)Nc3ccccc3C(N)=O)nn2)c(O)c(OC)c1` [9a, 1-(5-allyl-2-hydroxy-3-methoxybenzyl)-N-(2-carbamoylphenyl)-1H-1,2,3-triazole-4-carboxamide]: greater than 40 µM, “did not show detectable values of IC50” and greater than 512 µg/mL.
On to `C=CCc1cc(Cn2cc(C(=O)Nc3ccc(F)cc3C(N)=O)nn2)c(O)c(OC)c1` [9c, 1-(5-allyl-2-hydroxy-3-methoxybenzyl)-N-(2-carbamoyl-4-fluorophenyl)-1H-1,2,3-triazole-4-carboxamide], for which the IC50 in test [1] (setting [3]) amounted to 21 µM. In test [2], the MIC was greater than 512 µg/mL.
The matching figures for `C=CCc1cc(Cn2cc(-c3nc4ccccc4c(=O)o3)nn2)c(O)c(OC)c1` [compound 14, 2-(1-(5-allyl-2-hydroxy-3-methoxybenzyl)-1H-1,2,3-triazol-4-yl)-4H-benzo[d][1,3]oxazin-4-one]: 31.7 µM and greater than 512 µg/mL.
The like results for `C=CCc1cc(Cn2cc(C(=O)Nc3ccc(OC)cc3C(N)=O)nn2)c(O)c(OC)c1` [9b, 1-(5-allyl-2-hydroxy-3-methoxybenzyl)-N-(2-carbamoyl-4-methoxyphenyl)-1H-1,2,3-triazole-4-carboxamide] were, in that order, 16.4 µM and greater than 512 µg/mL.
Take `C=CCc1ccc(O)c(OC)c1` [Eugenol, eugenol, reference compound]: the half-inhibitory concentration (IC50) in test [1] (72 h) was greater than 40 µM. The molecule also registered a minimal inhibitory concentration (MIC) in test [2] of 512 µg/mL (≈ 3120 µM). For the same molecule, the “MLC C. albicans” value in test [2] (minimum lethal concentration, subculture on SDA after MIC reading) is greater than 512 µg/mL.
With `C=CCc1cc(Cn2cc(-c3nc4ccc(OC)cc4c(=O)[nH]3)nn2)c(O)c(OC)c1` [10b, 2-(1-(5-allyl-2-hydroxy-3-methoxybenzyl)-1H-1,2,3-triazol-4-yl)-6-methoxyquinazolin-4(3H)-one], the IC50 in test [1] (setting [3]) came to 19.9 µM. Also, in test [2], the minimal inhibitory concentration (MIC) was greater than 512 µg/mL.
